Measured values from patent US7687496B2, “C7-substituted camptothecin analogs” (priority 2007, dated 2010).
Like-named read-outs stand apart in the source and are kept apart here.

Tests used:
[1] = test system: advanced gastrointestinal cancer; settings: cited from earlier work
[2] = doses of 20 to 30 mg/m^2; cited from earlier work
[3] = test system: advanced malignant melanoma; settings: fifteen patients, 90-360 mg/m^2 every 2 weeks; cited from earlier work
[4] = cited from earlier work
[5] = clinical studies in Japan; cited from earlier work
[6] = test system: A2780/DX5 cells; assay: Sulforhodamine B (SRB) cytotoxicity assay in A2780/DX5 cells; assay type: cell-based; settings: for IC50 Ratio: A2780/DX5 versus A2780/WT; for IC50: Homo sapiens, A2780, read-out: A2780/DX5
Experimental: (§1) Each of the testing conditions used in this study in both A2780/WT (wild-type) and A2780/DX5 cells were repeated in five to fifteen experiments that were performed on separate days. Each experiment consisted of one microtiter plate with at least eight individual assays of a given drug treatment condition on the plate. The sulforhodamine B (SRB) assay was used to assess cytotoxicity and absorbance at 570 nm (A570) in order to calculate the percentage of cell control (or percent cell survival) for the various treatment conditions in the plate wells.
(§2) Roswell Park Memorial Institute (RPMI 1640) medium, fetal bovine serum (FBS), and L-glutamine were purchased from Gibco BRL. Drugs were dissolved in sterile dimethylsulfoxide (DMSO), from American Type Culture Collection (ATCC) for stock solutions (2.5 to 5.0 mM). Subsequent dilutions were made using cell culture medium (prior to adding the drug to cells). SRB was purchased from Sigma and dissolved in 1.0 percent acetic acid. Trichloroacetic acid was purchased from VWR International.
(§3) Cells were manipulated in a Class IIA/B3 Biological Safety Cabinet (Forma Scientific) and maintained at 37° C. in a humidified atmosphere containing 5% CO2 in a water-jacketed cell culture incubator (Forma Scientific). Cells were counted using a Coulter-Z1 counter (Beckman-Coulter). Following drug treatment, plates were washed using a Biomek 2000 station (Beckman) and, following exposure to SRB dye, plates were washed using an automated plate washer (Model EL404, Bio-Tek Instruments). Percentage of control was correlated to A570 values and determined using a Model EL800 plate reader (Bio-Tek Instruments).
Population doubling times for the two cell lines used in this study encompassed a total of five cell doublings corresponding to approximately 5 days for A2780/WT and A2780/DX5 cells. A2780/WT and A2780/DX5 cells were cultured in RPMI 1640 medium supplemented with 10% fetal bovine serum and 1 mM of L-glutamine. Both cell lines were maintained as monolayered cultures in T-25 or T-75 flasks and then seeded to microtiter plate wells for experiments described herein. Prior to SRB assays, cell viability was monitored by evaluation of microtiter plate wells. Dead cells detach and float while living cells remain attached to the bottom of the cell well.
The sulforhodamine B (SRB) cytotoxicity assay (see, Skehan P, et al., New colorimetric cytotoxicity assay for anticancer-drug screening. J. Natl. Cancer Inst. 82:1107-1112 (1990)) was used to determine the cytotoxic effects of BNP1350, SN-38, topotecan, 9-NH2-CPT, and 9-NO2-CPT on cell growth in vitro. Briefly, after the medium was aspirated from individual plate wells, trichloroacetic acid (100 μL of 10.0% solution) was added to each well, and the plates were incubated at 4° C. for at least 1 hour. The plates were washed five-times with water using an automated microplate washer (Model EL 404, Bio-Tek Instruments), SRB solution (100 μL of 0.4 grams SRB dissolved in 100 mL 1.0 percent acetic acid) was added, and plates remained at room temperature for 15 minutes. The plates were then washed five-times using acetic acid (1.0%), air dried, and bound dye was solubilized in Tris base (150 μL, 10 mM). Plates were agitated (gently) for 5 minutes and the absorbance values of the SRB dye-protein adduct at a 570 nm wavelength (A570) were determined using an automated microtiter plate reader equipped with an A570 filter (Model EL800, BioTek Instruments).

[7] = test system: A2780/WT (wild-type) cells; assay: Sulforhodamine B (SRB) cytotoxicity assay in A2780/WT cells; assay type: cell-based; settings: Homo sapiens
Experimental: as §1, §2, §3
Population doubling times for the two cell lines used in this study encompassed a total of five cell doublings corresponding to approximately 5 days for A2780/WT and A2780/DX5 cells. A2780/WT and A2780/DX5 cells were cultured in RPMI 1640 medium supplemented with 10% fetal bovine serum and 1 mM of L-glutamine. Both cell lines were maintained as monolayered cultures in T-25 or T-75 flasks and then seeded to microtiter plate wells for experiments described herein. Prior to SRB assays, cell viability was monitored by evaluation of microtiter plate wells. […]
The sulforhodamine B (SRB) cytotoxicity assay (see, Skehan P, et al., New colorimetric cytotoxicity assay for anticancer-drug screening. J. Natl. Cancer Inst. 82:1107-1112 (1990)) was used to determine the cytotoxic effects of BNP1350, SN-38, topotecan, 9-NH2-CPT, and 9-NO2-CPT on cell growth in vitro. […] Plates were agitated (gently) for 5 minutes and the absorbance values of the SRB dye-protein adduct at a 570 nm wavelength (A570) were determined using an automated microtiter plate reader equipped with an A570 filter (Model EL800, BioTek Instruments).

[8] = test system: human plasma proteins; assay: Percent of free camptothecin analogs in human plasma (dialysis, HPLC); settings: 100 nM compound concentrations
Experimental: Stocks of various camptothecin analogs were prepared in DMSO. Phosphate buffer was prepared from analytical grade reagents and regenerated cellulose membranes with 12-14 kD molecular weight cut-off (MWCO) were purchased from Spectrum Laboratories. Samples were incubated 48 hours or longer at room temperature until equilibrium was reached. Experiments to determine the percent of free camptothecin/Karenitecin® analogs were performed in triplicate. Optimum HPLC detection conditions for each camptothecin/Karenitecin® analog were developed using traditional HPLC methods.

[9] = test system: panel of over 20 human cancer cell lines
[10] = carboxylate form versus lactone form; cited from earlier work
[11] = 5-day course (27 patients total), 4 wks
[12] = 5-day course (27 patients total), 8 wks
[13] = 5-day course (27 patients total), 12 wks
[14] = single-dose method (34 patients total), 3 wks
[15] = single-dose method (34 patients total), 6 wks
[16] = single-dose method (34 patients total), 9 wks
[17] = single-dose method (34 patients total), 12 wks
[18] = 5-day course, 15 mg/m^2 × 5, 9 patients treated
[19] = 5-day course, 17 mg/m^2 × 5, 5 patients treated
[20] = 5-day course, 20 mg/m^2 × 5, 10 patients treated
[21] = single-dose method, 110 mg/m^2, 2 patients treated
[22] = single-dose method, 120 mg/m^2, 7 patients treated
[23] = single-dose method, 180 mg/m^2, 9 patients treated

## CC[C@@]1(O)C(=O)OCc2c1cc1n(c2=O)Cc2cc3ccccc3nc2-1 [CPT sodium]
[1]; [11]
  Objective results: Improved: 1 patients
  Objective results: Stable: 12 patients
  Objective results: Worse: 14 patients
[1]; [12]
  Objective results: Stable: 7 patients
  Objective results: Worse: 20 patients
[1]; [13]
  Objective results: Stable: 6 patients
  Objective results: Worse: 21 patients
[1]; after 2 months (8 or 9 weeks), 61 patients
  patients with evidence of partial objective improvement: two of their 61 patients
[1]; single-dose method (34 patients total), 3 wks after start of therapy
  Objective results: Improved: 4 patients
[1]; [14]
  Objective results: Stable: 17 patients
  Objective results: Worse: 13 patients
[1]; [15]
  Objective results: Improved: 2 patients
  Objective results: Stable: 11 patients
  Objective results: Worse: 21 patients
[1]; [16]
  Objective results: Improved: 2 patients
  Objective results: Stable: 8 patients
  Objective results: Worse: 24 patients
[1]; [17]
  Objective results: Stable: 6 patients
  Objective results: Worse: 28 patients
[2]
  dose-limiting bladder toxicity: three patients
[3]
  less pronounced transient tumor regression: three patients
  myelosuppression: 11 patients
  patients with a 50% or greater decrease in tumor diameter: None of the patients
[4]; 5-day course (P < 0.05)
  Cystitis: 48 (P < 0.05) % of 27 Patients
[4]; 5-day course, 11 mg/m^2 × 5, 2 patients treated
  Number of patients with cystitis: 1 patients
[4]; [18]
  Number of patients with cystitis: 4 patients
  Number of patients with diarrhea: 1 patients
[4]; [19]
  Number of patients with cystitis: 2 patients
  Number of patients with diarrhea: 4 patients
[4]; [20]
  Number of patients with cystitis: 6 patients
  Number of patients with diarrhea: 4 patients
[4]; 5-day course, 22 mg/m^2 × 5, 1 patient treated
  Number of patients with diarrhea: 1 patients
[4]; single-dose method, 100 mg/m^2, 6 patients treated
  Number of patients with cystitis: 2 patients
[4]; [21]
  Number of patients with cystitis: 1 patients
  Number of patients with diarrhea: 1 patients
[4]; [22]
  Number of patients with cystitis: 2 patients
  Number of patients with diarrhea: 4 patients
[4]; [23]
  Number of patients with cystitis: 3 patients
  Number of patients with diarrhea: 2 patients

## CCc1c2c(nc3ccc(OC(=O)N4CCC(N5CCCCC5)CC4)cc13)-c1cc3c(c(=O)n1C2)COC(=O)[C@]3(O)CC [CPT-11, 7-ethyl-10-[4-(1-piperidino)-1-piperidino]carbonyloxy camptothecin]
[5]
  patient deaths directly attributable to drug toxicity: approximately 100 patient deaths

## C=C[Si](C)(C)CCc1c2c(nc3ccccc13)-c1cc3c(c(=O)n1C2)COC(=O)[C@]3(O)CC [Compound 1, 11-(4S)-[2-(dimethylvinylsilanyl)-ethyl]-4-ethyl-4-hydroxy-1,12-dihydro-4H-2-oxa-6,12a-diaza-dibenzo[b,h]fluorene-3,13-dione]
[6]
  IC50 Ratio: 1.68
  IC50: 21.8 nM
[7]; SRB assay, A2780/WT cells, read-out: A2780/WT
  IC50: 13 nM
[8]
  Percent of Free Camptothecin Analogs in Human Plasma: 2%

## CC[C@@]1(O)C(=O)OCc2c1cc1n(c2=O)Cc2c-1nc1ccccc1c2CC[Si](C)(C)CSC(C)=O [Compound 9, thioacetic acid S-({[2-(4-ethyl-4-hydroxy-3,13-dioxo-3,4,12,13-tetrahydro-1H-2-oxa-6,12a-diaza-dibenzo[b,h]fluoren-11-yl)-ethyl]-dimethylsilanyl}-methyl)ester]
[6]
  IC50 Ratio: 1.94
  IC50: 125 nM
[7]; A2780, read-out: A2780/WT
  IC50: 64.7 nM

## CC[C@@]1(O)C(=O)OCc2c1cc1n(c2=O)Cc2c-1nc1ccccc1c2CC[Si](C)(C)CCCOC(=O)C1CCC1 [Compound 62, Cyclobutanecarboxylic acid 3-{[2-(4-ethyl-4-hydroxy-3,13-dioxo-3,4,12,13-tetrahydro-1H-2-oxa-6,12a-diaza-dibenzo[b,h]fluoren-11-yl)-ethyl]-dimethyl-silanyl}-propyl ester]
[6]
  IC50 Ratio: 3.77
  IC50: 39.2 nM
[7]; A2780, read-out: A2780/WT
  IC50: 10.4 nM

## CC[C@@]1(O)C(=O)OCc2c1cc1n(c2=O)Cc2c-1nc1ccccc1c2CC[Si](C)(C)CCCOC(=O)C1=CCNO1 [Compound 64, 2,3-Dihydro-isoxazole-5-carboxylic acid 3-{[2-(4-ethyl-4-hydroxy-3,13-dioxo-3,4,12,13-tetrahydro-1H-2-oxa-6,12a-diaza-dibenzo[b,h]fluoren-11-yl)-ethyl]-dimethyl-silanyl}-propyl ester]
[6]
  IC50 Ratio: 4.27
  IC50: 59.8 nM
[7]; A2780, read-out: A2780/WT
  IC50: 14 nM

## CC[C@@]1(O)C(=O)OCc2c1cc1n(c2=O)Cc2c-1nc1ccccc1c2CC[Si](C)(C)C [Karenitecin, (4S)-4-ethyl-4-hydroxy-11-[2-(trimethylsilyl)ethyl]-1H-pyrano[3′:4′:6,7]indolizino[1,2-b]quinoline-3,14(4H,12H)-dione]
[9]
  antitumor potency compared with Topotecan and SN-38: significantly more potent antitumor agent than either Topotecan™ or SN-38

## CC[C@@](O)(C(=O)O)c1cc2n(c(=O)c1CO)Cc1cc3ccccc3nc1-2 [carboxylate form of CPT]
[10]
  reduction of anti-tumor activity: at least 10 fold
